Source: patent US9567384B2, “Phosphorylation on the Thr-248 and/or Thr-250 residues of transcription factor E2F4 as a therapeutic target in pathological processes associated with somatic polyploidy” (CONSEJO SUPERIOR DE INVESTIGACIONES CIENTIFICAS (CSIC), priority 2011, dated 2017)

How the values were obtained:
cMyc gene promoter = assay: Luciferase assay, cMyc gene promoter reporter in chick embryo retinal cell neurogenic cultures E6; format: cell-based
Procedure: (§1) These cells respond to NGF by inducing cell cycle reactivation that leads to somatic tetraploidy (endoreduplication) (Morillo et al., 2010). A. Western blot with anti-active p38^MAPK (P-p38^MAPK) and anti-p38^MAPK in nuclear extracts of the mentioned neurogenic cultures treated for the indicated time with 100 ng/ml NGF. The normalized ratios between P-p38^MAPK and p38^MAPK levels are indicated at the bottom. B. Immunohistochemical staining with anti-active p38^MAPK antibodies (P-p38^MAPK) in the mentioned neurogenic cultures treated with 100 ng/ml NGF for 20 minutes. The nuclei were labeled with bisbenzimide (Bisb.). […] C. Luciferase assay in extracts of chick embryo retinal cell neurogenic cultures E6 transfected with a plasmid expressing luciferase under the control of cMyc gene promoter, known for its response to E2F during G1/S transition, and another plasmid with the constitutive expression of β-galactosidase. The luciferase/β-galactosidase ratio values are depicted as “luciferase activity”. […] This effect is blocked with selective p38^MAPK inhibitor SB203580 (used at 5 μM). D. Incorporation of BrdU to indicate entry into S phase in chick embryo retinal cell neurogenic cultures E6.

E2F4 = assay: Western blot with anti-phosphoThr antibodies in extracts immunoprecipitated with anti-E2F4 antibodies; format: cell-based, chick; details: 100 ng/ml NGF
[1] = test system: chick embryo retinal cell neurogenic cultures E6; assay: Incorporation of BrdU (entry into S phase) in chick embryo retinal cell neurogenic cultures E6; format: cell-based
Procedure: as §1
A. Luciferase activity analyzed as described in FIG. 2C. […] Based on the results shown in panels A and B, it is deduced that p38^MAPK acts exclusively through Thr261/Thr263 residues. C. Luciferase activity analyzed as described in FIG. 2C.

p38^MAPK = assay: Immunohistochemical staining with anti-active p38MAPK antibodies in neurogenic cultures; format: cell-based, chick; details: 100 ng/ml NGF for 20 minutes
Procedure: as §1

[2] = expression of E2F4-ND, 100 ng/ml NGF

C[S+]([O-])c1ccc(-c2nc(-c3ccncc3)c(-c3ccc(F)cc3)[nH]2)cc1 (stereo not drawn) [SB203580, reference compound]
effect on NGF-induced cMyc promoter activation (luciferase activity) (cMyc gene promoter; 100 ng/ml NGF, SB203580 used at 5 μM): blocked
effect on NGF-promoted phosphorylation on threonine residues of E2F4 (E2F4; SB203580 used at 5 μM): inhibits such phosphorylation
effect on NGF-induced increase in the proportion of cells in S phase (BrdU) ([1]; 100 ng/ml NGF, inhibitor used at 5 μM): blocked

E2F4-CA: constitutively active form of chicken E2F4 characterized by Thr261Glu/Thr263Glu substitutions
cMyc promoter activity (luciferase activity) (cMyc gene promoter; expression of E2F4-CA in the presence of SB203580 5 μM): can be observed even in the presence
cMyc promoter activity (luciferase activity) (cMyc gene promoter; expression of E2F4-CA, transfected cells): induces cMyc promoter activity
incorporation of BrdU ([1]; cells transfected with E2F4-CA): increases significantly
incorporation of BrdU ([1]; cells transfected with E2F4-CA in the presence of SB203580 5 μM): can be observed even in the presence
mimicking the effect of NGF on retinal neurons (cell cycle reactivation) ([1]; summary of FIG. 4A, FIG. 4B (luciferase and BrdU)): capable of mimicking the effect of NGF

E2F4-ND: negative dominant form of chicken E2F4 characterized by Thr261Ala/Thr263Ala substitutions, preventing phosphorylation by p38MAPK
effect of NGF on cMyc promoter activity (luciferase activity) (cMyc gene promoter; [2]): prevents the effect
effect of NGF on the incorporation of BrdU [1, 2]: prevents the effect
effect of NGF on the cell cycle in neurogenic retinal cultures ([1]; summary of FIG. 4C, FIG. 4D (luciferase and BrdU)): capable of inhibiting the effect of NGF

nerve growth factor [NGF]
luciferase activity (luciferase/β-galactosidase ratio), cMyc promoter (cMyc gene promoter; 100 ng/ml NGF): entails cMyc promoter activation
phosphorylation on threonine residues of E2F4 (E2F4): increase in phosphorylation on threonine residues
incorporation of BrdU, proportion of cells in S phase ([1]; 100 ng/ml NGF): an increase in the proportion of cells in S phase
active p38MAPK (P-p38MAPK) signal in the nucleus (p38^MAPK): signal increase
